Experimental findings from patent US20090018134A1, “Compounds - 945” (AstraZeneca AB, priority 2007, published 2009) are described below.

pIC50: −log10 of the molar value.

The assay deals with T1, mTOR (Homo sapiens, UniProt P42345).
T1 construct: FLAG; made in house
T1 sequence (P42345 1362-2549): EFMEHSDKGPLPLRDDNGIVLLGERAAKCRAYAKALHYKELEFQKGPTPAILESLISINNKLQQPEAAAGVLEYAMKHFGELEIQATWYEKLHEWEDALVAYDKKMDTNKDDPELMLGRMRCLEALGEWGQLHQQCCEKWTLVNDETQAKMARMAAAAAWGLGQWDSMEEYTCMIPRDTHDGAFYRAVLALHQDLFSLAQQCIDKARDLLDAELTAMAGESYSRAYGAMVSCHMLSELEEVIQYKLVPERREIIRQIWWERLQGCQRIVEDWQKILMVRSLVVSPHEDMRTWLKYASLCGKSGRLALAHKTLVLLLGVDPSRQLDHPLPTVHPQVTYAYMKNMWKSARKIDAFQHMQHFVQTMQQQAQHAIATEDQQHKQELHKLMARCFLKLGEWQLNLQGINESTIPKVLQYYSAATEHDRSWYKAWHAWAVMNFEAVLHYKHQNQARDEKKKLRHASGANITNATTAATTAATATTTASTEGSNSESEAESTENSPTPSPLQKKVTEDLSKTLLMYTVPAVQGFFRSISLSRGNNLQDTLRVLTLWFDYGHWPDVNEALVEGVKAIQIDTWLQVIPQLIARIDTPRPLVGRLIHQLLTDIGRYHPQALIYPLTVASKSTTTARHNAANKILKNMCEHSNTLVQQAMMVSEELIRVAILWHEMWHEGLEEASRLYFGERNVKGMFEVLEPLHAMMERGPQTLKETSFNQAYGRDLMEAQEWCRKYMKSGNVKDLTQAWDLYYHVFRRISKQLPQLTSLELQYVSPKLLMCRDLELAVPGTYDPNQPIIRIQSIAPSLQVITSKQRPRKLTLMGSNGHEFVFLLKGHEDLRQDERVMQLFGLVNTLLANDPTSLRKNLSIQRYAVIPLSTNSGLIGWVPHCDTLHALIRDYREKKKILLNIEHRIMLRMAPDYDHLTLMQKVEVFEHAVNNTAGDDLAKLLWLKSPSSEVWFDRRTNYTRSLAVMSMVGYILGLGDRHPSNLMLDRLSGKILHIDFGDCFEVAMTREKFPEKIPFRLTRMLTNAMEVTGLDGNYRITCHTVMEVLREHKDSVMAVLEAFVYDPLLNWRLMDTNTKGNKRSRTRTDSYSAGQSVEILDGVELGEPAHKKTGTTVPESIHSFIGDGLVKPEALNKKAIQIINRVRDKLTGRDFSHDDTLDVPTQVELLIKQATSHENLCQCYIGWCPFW
Briefly: In Vitro mTOR Kinase Assay (Echo), Test (a)(ii). The assay is classed as biochemical. The note with it: table of enzyme assay Test (a)(ii); read-out: Test (a)(ii) IC50. The method, boiled down:
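FLAG-tagged human mTOR truncation (residues 1362-2549) expressed in HEK293 cells and FLAG-purified. Compounds dispensed acoustically, reaction 2 h at room temperature, stopped with EDTA. Phosphorylation of biotinylated peptide detected by AlphaScreen with anti-p70 S6K (T389) antibody overnight; IC50 reported.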
Take `C[C@H]1COCCN1c1cc(C2(S(=O)(=O)C3CC3)CCC2)nc(-c2ccc(NC(=O)NCCCO)cc2)n1` [Example 64z, 1-[4-[4-(1-cyclopropylsulfonylcyclobutyl)-6-[(3S)-3-methylmorpholin-4-yl]pyrimidin-2-yl]phenyl]-3-(3-hydroxypropyl)urea]: the pIC50 was 8.06.

Take `C[C@H]1COCCN1c1cc(C2(S(=O)(=O)c3ccc(F)cc3)CCC2)nc(-c2ccc(NC(=O)NCc3ncc[nH]3)cc2)n1` [Example 65, 1-[4-[4-[1-(4-Fluorophenyl)sulfonylcyclobutyl]-6-[(3S)-3-methylmorpholin-4-yl]pyrimidin-2-yl]phenyl]-3-(1H-imidazol-2-ylmethyl)urea]: the pIC50 is 7.52.

With `C[C@H]1COCCN1c1cc(C2(S(=O)(=O)c3ccc(F)cc3)CCC2)nc(-c2ccc(NC(=O)NCCCO)cc2)n1` [Example 65a, 1-[4-[4-[1-(4-fluorophenyl)sulfonylcyclobutyl]-6-[(3S)-3-methylmorpholin-4-yl]pyrimidin-2-yl]phenyl]-3-(3-hydroxypropyl)urea], the pIC50 is 8.16.

For `C[C@H]1COCCN1c1cc(C2(S(=O)(=O)c3ccc(F)cc3)CCC2)nc(-c2ccc(NC(=O)NCCO)cc2)n1` [Example 65b, 1-[4-[4-[1-(4-fluorophenyl)sulfonylcyclobutyl]-6-[(3S)-3-methylmorpholin-4-yl]pyrimidin-2-yl]phenyl]-3-(2-hydroxyethyl)urea], the negative-log IC50 (pIC50) was 8.47.

Take `C[C@H]1COCCN1c1cc(C2(S(=O)(=O)c3ccc(F)cc3)CCC2)nc(-c2ccc(NC(=O)NC(C)(C)CO)cc2)n1` [Example 65c, 1-[4-[4-[1-(4-fluorophenyl)sulfonylcyclobutyl]-6-[(3S)-3-methylmorpholin-4-yl]pyrimidin-2-yl]phenyl]-3-(1-hydroxy-2-methylpropan-2-yl)urea]: the negative-log IC50 (pIC50) is 7.82.

On to `C[C@@H](CO)NC(=O)Nc1ccc(-c2nc(N3CCOC[C@@H]3C)cc(C3(S(=O)(=O)c4ccc(F)cc4)CCC3)n2)cc1` [Example 65d, 1-[4-[4-[1-(4-fluorophenyl)sulfonylcyclobutyl]-6-[(3S)-3-methylmorpholin-4-yl]pyrimidin-2-yl]phenyl]-3-[(2S)-1-hydroxypropan-2-yl]urea], for which the pIC50 is 8.35.

Regarding `C[C@H](CO)NC(=O)Nc1ccc(-c2nc(N3CCOC[C@@H]3C)cc(C3(S(=O)(=O)c4ccc(F)cc4)CCC3)n2)cc1` [Example 65e, 1-[4-[4-[1-(4-fluorophenyl)sulfonylcyclobutyl]-6-[(3S)-3-methylmorpholin-4-yl]pyrimidin-2-yl]phenyl]-3-[(2R)-1-hydroxypropan-2-yl]urea], the pIC50 was 7.94.

As for `C[C@H]1COCCN1c1cc(C2(S(=O)(=O)c3nccs3)CC2)nc(-c2ccc(NC(=O)NCCO)cc2)n1` [Example 66, 3-(2-Hydroxyethyl)-1-[4-[4-[(3S)-3-methylmorpholin-4-yl]-6-[1-(1,3-thiazol-2-ylsulfonyl)cyclopropyl]pyrimidin-2-yl]phenyl]urea], the negative logarithm of the IC50 (pIC50) is 8.52.

On to `C[C@H]1COCCN1c1cc(C2(S(=O)(=O)c3nccs3)CC2)nc(-c2ccc(NC(=O)NCCCO)cc2)n1` [Example 66a, 3-(3-hydroxypropyl)-1-[4-[4-[(3S)-3-methylmorpholin-4-yl]-6-[1-(1,3-thiazol-2-ylsulfonyl)cyclopropyl]pyrimidin-2-yl]phenyl]urea], for which the pIC50 was 8.38.

As for `C[C@H]1COCCN1c1cc(C2(S(=O)(=O)c3nccs3)CC2)nc(-c2ccc(NC(=O)NCc3ncc[nH]3)cc2)n1` [Example 66b, 3-(1H-imidazol-2-ylmethyl)-1-[4-[4-[(3S)-3-methylmorpholin-4-yl]-6-[1-(1,3-thiazol-2-ylsulfonyl)cyclopropyl]pyrimidin-2-yl]phenyl]urea], the pIC50 was 7.61.

As to `C[C@H]1COCCN1c1cc(C2(S(=O)(=O)c3nccs3)CC2)nc(-c2ccc(NC(=S)NCCO)cc2)n1` [Example 67, 3-(2-Hydroxyethyl)-1-[4-[4-[(3S)-3-methylmorpholin-4-yl]-6-[1-(1,3-thiazol-2-ylsulfonyl)cyclopropyl]pyrimidin-2-yl]phenyl]thiourea], the pIC50 is 9.00.

As to `Cc1ccc(S(=O)(=O)C2(c3cc(N4CCOC[C@@H]4C)nc(-c4ccc(NC(=O)NC5CC5)cc4)n3)CCC2)cc1` [Example 68, 3-Cyclopropyl-1-[4-[4-[(3S)-3-methylmorpholin-4-yl]-6-[1-(4-methylphenyl)sulfonylcyclobutyl]pyrimidin-2-yl]phenyl]urea], the pIC50 was 8.85.

Regarding `Cc1ccc(S(=O)(=O)C2(c3cc(N4CCOC[C@@H]4C)nc(-c4ccc(NC(=O)Nc5cnn(C)c5)cc4)n3)CCC2)cc1` [Example 68a], the pIC50 is 8.76.

For `CCNC(=O)Nc1ccc(-c2nc(N3CCOC[C@H]3C)cc(C3(S(=O)(=O)c4ccccc4)CC3)n2)cc1` [Example 69, 1-[4-[4-[1-(Benzenesulfonyl)cyclopropyl]-6-[(3R)-3-methylmorpholin-4-yl]pyrimidin-2-yl]phenyl]-3-ethylurea], the pIC50 was 8.10.

Consider `CCNC(=O)Nc1ccc(-c2nc(N3CCOC[C@@H]3CC)cc(C3(S(=O)(=O)c4ccccc4)CC3)n2)cc1` [Example 70, 1-[4-[4-[1-(Benzenesulfonyl)cyclopropyl]-6-[(3S)-3-ethylmorpholin-4-yl]pyrimidin-2-yl]phenyl]-3-ethylurea], for which the pIC50 is 8.70.

For `CCNC(=O)Nc1ccc(-c2nc(N3CCOCC3CO)cc(C3(S(=O)(=O)c4ccccc4)CC3)n2)cc1` (stereo not shown) [Example 71, 1-[4-[4-[1-(Benzenesulfonyl)cyclopropyl]-6-[3-(hydroxymethyl)morpholin-4-yl]pyrimidin-2-yl]phenyl]-3-ethylurea], the pIC50 was 7.74.

As for `CCNC(=O)Nc1ccc(-c2nc(N3[C@@H](C)COC[C@@H]3C)cc(C3(S(=O)(=O)c4ccccc4)CC3)n2)cc1` [Example 72, 1-[4-[4-[1-(Benzenesulfonyl)cyclopropyl]-6-[(3S,5S)-3,5-dimethylmorpholin-4-yl]pyrimidin-2-yl]phenyl]-3-ethylurea], the pIC50 is 8.36.

Regarding `CCNC(=O)Nc1ccc(-c2nc(N3[C@H](C)COC[C@@H]3C)cc(C3(S(=O)(=O)c4ccccc4)CC3)n2)cc1` [Example 73, 1-[4-[4-[1-(Benzenesulfonyl)cyclopropyl]-6-[(3R,5S)-3,5-dimethylmorpholin-4-yl]pyrimidin-2-yl]phenyl]-3-ethylurea], the pIC50 is 8.13.

With `CC[C@H]1COCCN1c1cc(C2(S(=O)(=O)c3ccccc3)CC2)nc(-c2ccc(NC(=O)NC)cc2)n1` [Example 74, 1-[4-[4-[1-(Benzenesulfonyl)cyclopropyl]-6-[(3S)-3-ethylmorpholin-4-yl]pyrimidin-2-yl]phenyl]-3-methylurea], the negative-log IC50 (pIC50) is 8.63.

Take `CC[C@H]1COCCN1c1cc(C2(S(=O)(=O)c3ccccc3)CC2)nc(-c2ccc(NC(=O)NC3CC3)cc2)n1` [Example 74a, 1-[4-[4-[1-(benzenesulfonyl)cyclopropyl]-6-[(3S)-3-ethylmorpholin-4-yl]pyrimidin-2-yl]phenyl]-3-cyclopropylurea]: the pIC50 is 8.40.

Regarding `CC[C@H]1COCCN1c1cc(C2(S(=O)(=O)c3ccccc3)CC2)nc(-c2ccc(NC(=O)NCCO)cc2)n1` [Example 74b, 1-[4-[4-[1-(benzenesulfonyl)cyclopropyl]-6-[(3S)-3-ethylmorpholin-4-yl]pyrimidin-2-yl]phenyl]-3-(2-hydroxyethyl)urea], the pIC50 is 8.61.

On to `CC[C@H]1COCCN1c1cc(C2(S(=O)(=O)c3ccccc3)CC2)nc(-c2ccc(NC(=O)NCCF)cc2)n1` [Example 74c, 1-[4-[4-[1-(benzenesulfonyl)cyclopropyl]-6-[(3S)-3-ethylmorpholin-4-yl]pyrimidin-2-yl]phenyl]-3-(2-fluoroethyl)urea], for which the negative logarithm of the IC50 (pIC50) was 8.50.

In the case of `CC[C@H]1COCCN1c1cc(C2(S(=O)(=O)c3ccccc3)CC2)nc(-c2ccc(NC(=O)NCC(F)F)cc2)n1` [Example 74d, 1-[4-[4-[1-(benzenesulfonyl)cyclopropyl]-6-[(3S)-3-ethylmorpholin-4-yl]pyrimidin-2-yl]phenyl]-3-(2,2-difluoroethyl)urea], the pIC50 is 8.55.

For `CC[C@H]1COCCN1c1cc(C2(S(=O)(=O)c3ccccc3)CC2)nc(-c2ccc(NC(=O)Nc3cnn(C)c3)cc2)n1` [Example 74e, 1-[4-[4-[1-(benzenesulfonyl)cyclopropyl]-6-[(3S)-3-ethylmorpholin-4-yl]pyrimidin-2-yl]phenyl]-3-(1-methylpyrazol-4-yl)urea], the negative logarithm of the IC50 (pIC50) is 8.30.

Regarding `CC[C@H]1COCCN1c1cc(C2(S(=O)(=O)c3ccccc3)CC2)nc(-c2ccc(NC(=O)N[C@@H](C)CO)cc2)n1` [Example 74f, 1-[4-[4-[1-(benzenesulfonyl)cyclopropyl]-6-[(3S)-3-ethylmorpholin-4-yl]pyrimidin-2-yl]phenyl]-3-[(2S)-1-hydroxypropan-2-yl]urea], the pIC50 is 8.40.

Consider `CC[C@H]1COCCN1c1cc(C2(S(=O)(=O)c3ccccc3)CC2)nc(-c2ccc(NC(=O)N[C@H](C)CO)cc2)n1` [Example 74g, 1-[4-[4-[1-(benzenesulfonyl)cyclopropyl]-6-[(3S)-3-ethylmorpholin-4-yl]pyrimidin-2-yl]phenyl]-3-[(2R)-1-hydroxypropan-2-yl]urea], for which the negative-log IC50 (pIC50) is 8.36.

Regarding `CC[C@H]1COCCN1c1cc(C2(S(=O)(=O)c3ccccc3)CC2)nc(-c2ccc(NC(=O)NCCCO)cc2)n1` [Example 74h, 1-[4-[4-[1-(benzenesulfonyl)cyclopropyl]-6-[(3S)-3-ethylmorpholin-4-yl]pyrimidin-2-yl]phenyl]-3-(3-hydroxypropyl)urea], the negative-log IC50 (pIC50) was 8.49.

In the case of `CC[C@H]1COCCN1c1cc(C2(S(=O)(=O)c3ccccc3)CC2)nc(-c2ccc(NC(=O)NCC3(O)CC3)cc2)n1` [Example 74i, 1-[4-[4-[1-(benzenesulfonyl)cyclopropyl]-6-[(3S)-3-ethylmorpholin-4-yl]pyrimidin-2-yl]phenyl]-3-[(1-hydroxycyclopropyl)methyl]urea], the pIC50 was 8.03.

Broadly, the pIC50 is the negative decadic logarithm of the IC50, by convention in mol/L.
